Measured values from patent US20250275953A1, “VODOBATINIB FOR REDUCING PROGRESSION OF PARKINSON'S DISEASE” (Sun Pharma Advanced Research Company Ltd., priority 2022, published 2025).

Legend:
Assay in all cases: Biochemical kinase assay, mutant Abl
[1] = target: Abl (Y253F) (Homo sapiens, UniProt P00519, Y253F)
Description: (§1) Conventional biochemical kinase assays, using radioactivity and fluorescence as readouts, were used to derive half maximal-inhibitory concentrations (IC50) values.

[2] = target: Abl (F317I) (Homo sapiens, UniProt P00519, F317I)
Description: as §1

[3] = target: Abl (H396P) (Homo sapiens, UniProt P00519, H396P)
Description: as §1

[4] = target: Abl (F317L) (Homo sapiens, UniProt P00519, F317L)
Description: as §1

[5] = target: Abl (M351T) (Homo sapiens, UniProt P00519, M351T)
Description: as §1

[6] = target: Abl (E255K) (Homo sapiens, UniProt P00519, E255K)
Description: as §1

Compound: Cc1ccc(C(=O)NNC(=O)c2c(C)cccc2Cl)cc1C#Cc1cnc2ccccc2c1 [N′-(2-chloro-6-methylbenzoyl)-4-methyl-3-[2-(3-quinolyl)ethynyl]-benzohydrazide]
- IC50 [1]: 1 nM
- inhibition [2]: potently inhibit
- IC50 [3]: 0.5 nM
- inhibition [4]: potently inhibit
- IC50 [5]: 0.8 nM
- inhibition [6]: potently inhibit
